According to patent US9706777B2:

System: Alternaria solani
Experiment: Alternaria test (tomatoes)/preventive
Settings: 100 ppm a.i.; preventive spray on young tomato plants; evaluated 3 days after inoculation; 0% = untreated control, 100% = no disease
Procedure: The degree of efficacy, expressed in % is denoted.
In this case, the efficacy which was actually observed must be greater than the value for the expected efficacy (E) calculated from the abovementioned formula.
After the spray coating has dried on, the plants are inoculated with an aqueous spore suspension of Alternaria solani. The plants are then placed in an incubation cabinet at approximately 20° C. and a relative atmospheric humidity of 100%.
The test is evaluated 3 days after the inoculation.

With C#CCOc1ccc(CCNC(=O)C(OCC#C)c2ccc(Cl)cc2)cc1OC (stereo not shown) [F206 mandipropamid, mandipropamid] the “Efficacy in % found” value was 0%.
